Laboratory results published in US6852863B2, “Metabolites of (3-{[4-tert-butyl-benzyl)-(pyridine-3-sulfonyl)-amino]-methyl}-phenoxy)-acetic acid” (Pfizer Inc., priority 2002, dated 2005).

Molecular target: T1, rat EP2 prostaglandin E2 receptor (Rattus norvegicus, UniProt Q62928)
T1 construct: This full length receptor is used to prepare 293S cells expressing the EP2 receptor; expressed in transfected cells; membranes used in the assay
Assay: Rat EP2 receptor binding assay (displacement of 3H-prostaglandin E2)
Settings: 293S cell membranes expressing rat EP2, 3 nM 3H-prostaglandin E2, 1 hour at 25° C.
Description: Rat EP2 Recptor Binding Assay
Assay for Binding to Prostaglandin E2 Receptors
The full length EP2 receptor is made as disclosed in Nemoto et al., Prostaglandins and other Lipid Mediators, 1997, 54, 713-725. This full length receptor is used to prepare 293S cells expressing the EP2 receptor.
293S cells expressing the rat EP2 prostaglandin E2 receptor are generated according to methods known to those skilled in the art. Typically, PCR (polymerase chain reaction) primers corresponding to the 5′ and 3′ ends of the published full length receptor are made according to the well known methods disclosed above and are used in an RT-PCR reaction using the total RNA from rat kidney as a source. […]
Membrane Preparation: All operations are performed at 4° C. […] Pelleted membranes are resuspended to 3-10 mg protein per ml, protein concentration being determined of the method of Bradford [Bradford, M., Anal. Biochem., 72, 248 (1976)]. […]
Binding Assay: Frozen membranes prepared as above are thawed and diluted to 1 mg protein per ml in Buffer A above. […] To determine the amount of ^3H-prostaglandin bound to the membranes, the dried filters are placed into plastic bags with scintillation fluid and counted in a LKB 1205 Betaplate reader (Wallac, Gaithersburg, Md.). […]

T1 sequence (Q62928 whole entry): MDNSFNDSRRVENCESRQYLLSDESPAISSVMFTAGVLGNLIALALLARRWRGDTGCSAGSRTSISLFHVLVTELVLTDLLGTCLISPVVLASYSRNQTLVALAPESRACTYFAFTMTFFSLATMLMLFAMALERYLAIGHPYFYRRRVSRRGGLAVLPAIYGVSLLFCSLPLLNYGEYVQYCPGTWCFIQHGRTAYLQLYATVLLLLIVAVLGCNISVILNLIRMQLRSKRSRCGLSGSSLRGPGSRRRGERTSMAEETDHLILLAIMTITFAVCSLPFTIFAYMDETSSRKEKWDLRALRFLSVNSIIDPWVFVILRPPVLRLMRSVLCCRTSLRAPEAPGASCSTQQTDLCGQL

- IC50: 170 nM
SMILES: CC(C)(CO)c1ccc(CN(Cc2cccc(OCC(=O)O)c2)S(=O)(=O)c2cccnc2)cc1 [Metabolite M4, (3-{[[4-(2-hydroxy-1,1-dimethyl-ethyl)-benzyl]-(pyridine-3-sulfonyl)-amino]-methyl}-phenoxy)-acetic acid]
